Patent US20230085307A1, “PYRIDAZINONE COMPOUND AND HERBICIDE” (NISSAN CHEMICAL CORPORATION, priority 2019, published 2023)

Columns and labels:
[1] = system: blackgrass; test: Test Example 5: herbicidal effect by foliage application, plastic box (Table 20, symbol J); format: in vivo, blackgrass (Alopecurus myosuroides); conditions: 320 g/ha, foliage application after 14-day growth, evaluated three weeks after application
Outline: (§1)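 Plants were sown into sterilized diluvial soil under about 1.5 cm cover and kept in a greenhouse at 25° C. to 30° C. Fourteen days on, foliage received an even spray of the diluted emulsion. Herbicidal or crop effect was judged three weeks afterwards.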

[2] = system: Italian ryegrass; test: Test Example 5: herbicidal effect by foliage application, plastic box (Table 20, symbol K); format: in vivo, Italian ryegrass (Lolium multiflorum); conditions: 320 g/ha, foliage application after 14-day growth, evaluated three weeks after application
Outline: as §1

[3] = system: Japanese bulrush; test: Test Example 1: herbicidal activity, application before weed generation under submerged conditions (Table 16, symbol B); format: in vivo, Japanese bulrush (Schoenoplectus juncoides); conditions: amount of applied herbicide 320 g/ha
Outline: (§2)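 Submerged Wagner pots (alluvial soil, 4 cm water) sown with weed seeds and planted with 2.5-leaf rice seedlings; emulsifiable concentrate diluted in water applied to water surface on sowing day. Held in greenhouse at 25-30 °C; injury scored 0-5 by herbicidal rate after three weeks.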

[4] = system: windgrass; test: Test Example 5: herbicidal effect by foliage application, plastic box (Table 20, symbol L); format: in vivo, windgrass (Apera spica-venti); conditions: 320 g/ha, foliage application after 14-day growth, evaluated three weeks after application
Outline: as §1

[5] = system: green foxtail; test: Test Example 5: herbicidal effect by foliage application, plastic box (Table 20, symbol G); format: in vivo, green foxtail (Setaria viridis); conditions: 320 g/ha, foliage application after 14-day growth, evaluated three weeks after application
Outline: as §1

[6] = system: barnyard grass; test: Test Example 4: herbicidal effect by soil treatment (Table 19, symbol H); format: in vivo, barnyard grass (Echinochloa crus-galli); conditions: amount of applied herbicide 320 g/ha
Outline: (§3)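 In this soil treatment, the formulated compound reached the seeds only through the soil: seeds were buried about 1.5 cm deep in sterilized diluvial soil, then the diluted emulsion was sprayed over the surface. After three weeks at 25° C. to 30° C. in a greenhouse, effects were graded on criteria from an earlier test.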

[7] = system: barnyard grass; test: Test Example 3: herbicidal effect by foliage application, Wagner pot (Table 18, symbol H); format: in vivo, barnyard grass (Echinochloa crus-galli); conditions: 320 g/ha
Outline: (§4)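 Plants were sown in alluvial soil held under 0.1–0.5 cm standing water and grown 14 days in a greenhouse at 25–30 °C. An emulsifiable formulation, water-diluted to the set dose, was then sprayed onto the foliage, and effects were scored three weeks later using previously defined criteria.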

[8] = system: oval-leafed pondweed; test: Test Example 1: herbicidal activity, application before weed generation under submerged conditions (Table 16, symbol C); format: in vivo, oval-leafed pondweed (Monochoria vaginalis); conditions: amount of applied herbicide 320 g/ha
Outline: as §2

[9] = system: lambsquarters; test: Test Example 5: herbicidal effect by foliage application, plastic box (Table 20, symbol O); format: in vivo, lambsquarters (Chenopodium album); conditions: 320 g/ha, foliage application after 14-day growth, evaluated three weeks after application
Outline: as §1

[10] = system: green foxtail; test: Test Example 4: herbicidal effect by soil treatment (Table 19, symbol G); format: in vivo, green foxtail (Setaria viridis); conditions: amount of applied herbicide 320 g/ha
Outline: as §3

[11] = system: barnyard grass; test: Test Example 5: herbicidal effect by foliage application, plastic box (Table 20, symbol H); format: in vivo, barnyard grass (Echinochloa crus-galli); conditions: 320 g/ha, foliage application after 14-day growth, evaluated three weeks after application
Outline: as §1

[12] = system: persian speedwell; test: Test Example 5: herbicidal effect by foliage application, plastic box (Table 20, symbol R); format: in vivo, Persian speedwell (Veronica persica); conditions: 320 g/ha, foliage application after 14-day growth, evaluated three weeks after application
Outline: as §1

[13] = system: chickweed; test: Test Example 5: herbicidal effect by foliage application, plastic box (Table 20, symbol P); format: in vivo, common chickweed (Stellaria media); conditions: 320 g/ha, foliage application after 14-day growth, evaluated three weeks after application
Outline: as §1

[14] = system: velvetleaf; test: Test Example 5: herbicidal effect by foliage application, plastic box (Table 20, symbol M); format: in vivo, velvetleaf (Abutilon theophrasti); conditions: 320 g/ha, foliage application after 14-day growth, evaluated three weeks after application
Outline: as §1

[15] = system: redroot pigweed; test: Test Example 4: herbicidal effect by soil treatment (Table 19, symbol N); format: in vivo, redroot pigweed (Amaranthus retroflexus); conditions: amount of applied herbicide 320 g/ha
Outline: as §3

[16] = system: lambsquarters; test: Test Example 4: herbicidal effect by soil treatment (Table 19, symbol O); format: in vivo, lambsquarters (Chenopodium album); conditions: amount of applied herbicide 320 g/ha
Outline: as §3

[17] = system: southern crabgrass; test: Test Example 5: herbicidal effect by foliage application, plastic box (Table 20, symbol F); format: in vivo, southern crabgrass (Digitaria ciliaris); conditions: 320 g/ha, foliage application after 14-day growth, evaluated three weeks after application
Outline: as §1

[18] = system: late watergrass; test: Test Example 1: herbicidal activity, application before weed generation under submerged conditions (Table 16, symbol A); format: in vivo, late watergrass (Echinochloa oryzicola); conditions: amount of applied herbicide 320 g/ha
Outline: as §2

[19] = system: rice flat sedge; test: Test Example 3: herbicidal effect by foliage application, Wagner pot (Table 18, symbol E); format: in vivo, rice flat sedge (Cyperus iria); conditions: 320 g/ha
Outline: as §4

[20] = system: windgrass; test: Test Example 4: herbicidal effect by soil treatment (Table 19, symbol L); format: in vivo, windgrass (Apera spica-venti); conditions: amount of applied herbicide 320 g/ha
Outline: as §3

[21] = system: wild oat; test: Test Example 4: herbicidal effect by soil treatment (Table 19, symbol I); format: in vivo, wild oat (Avena fatua); conditions: amount of applied herbicide 320 g/ha
Outline: as §3

[22] = system: Italian ryegrass; test: Test Example 4: herbicidal effect by soil treatment (Table 19, symbol K); format: in vivo, Italian ryegrass (Lolium multiflorum); conditions: amount of applied herbicide 320 g/ha
Outline: as §3

[23] = system: chickweed; test: Test Example 4: herbicidal effect by soil treatment (Table 19, symbol P); format: in vivo, common chickweed (Stellaria media); conditions: amount of applied herbicide 320 g/ha
Outline: as §3

[24] = system: velvetleaf; test: Test Example 4: herbicidal effect by soil treatment (Table 19, symbol M); format: in vivo, velvetleaf (Abutilon theophrasti); conditions: amount of applied herbicide 320 g/ha
Outline: as §3

[25] = system: southern crabgrass; test: Test Example 4: herbicidal effect by soil treatment (Table 19, symbol F); format: in vivo, southern crabgrass (Digitaria ciliaris); conditions: amount of applied herbicide 320 g/ha
Outline: as §3

[26] = system: persian speedwell; test: Test Example 4: herbicidal effect by soil treatment (Table 19, symbol R); format: in vivo, Persian speedwell (Veronica persica); conditions: amount of applied herbicide 320 g/ha
Outline: as §3

[27] = system: wild oat; test: Test Example 5: herbicidal effect by foliage application, plastic box (Table 20, symbol I); format: in vivo, wild oat (Avena fatua); conditions: 320 g/ha, foliage application after 14-day growth, evaluated three weeks after application
Outline: as §1

[28] = system: Chinese sprangletop; test: Test Example 3: herbicidal effect by foliage application, Wagner pot (Table 18, symbol D); format: in vivo, chinese sprangletop (Leptochloa chinensis); conditions: 320 g/ha
Outline: as §4

[29] = system: blackgrass; test: Test Example 4: herbicidal effect by soil treatment (Table 19, symbol J); format: in vivo, blackgrass (Alopecurus myosuroides); conditions: amount of applied herbicide 320 g/ha
Outline: as §3

[30] = system: redroot pigweed; test: Test Example 5: herbicidal effect by foliage application, plastic box (Table 20, symbol N); format: in vivo, redroot pigweed (Amaranthus retroflexus); conditions: 320 g/ha, foliage application after 14-day growth, evaluated three weeks after application
Outline: as §1

| Structure (SMILES) | herbicidal effect on J: blackgrass (evaluation grade 0-5) [1] | herbicidal effect on K: Italian ryegrass (evaluation grade 0-5) [2] | Herbicidal effect, B: Japanese bulrush [3] | herbicidal effect on L: windgrass (evaluation grade 0-5) [4] | herbicidal effect on G: green foxtail (evaluation grade 0-5) [5] | Herbicidal effect by soil treatment, H: barnyard grass [6] | herbicidal effect on barnyard grass (H) [7] | Herbicidal effect, C: oval-leafed pondweed [8] | herbicidal effect on O: lambsquarters (evaluation grade 0-5) [9] | Herbicidal effect by soil treatment, G: green foxtail [10] | herbicidal effect on H: barnyard grass (evaluation grade 0-5) [11] | herbicidal effect on R: persian speedwell (evaluation grade 0-5) [12] | herbicidal effect on P: chickweed (evaluation grade 0-5) [13] | herbicidal effect on M: velvetleaf (evaluation grade 0-5) [14] | Herbicidal effect by soil treatment, N: redroot pigweed [15] | Herbicidal effect by soil treatment, O: lambsquarters [16] | herbicidal effect on F: southern crabgrass (evaluation grade 0-5) [17] | Herbicidal effect, A: late watergrass [18] | herbicidal effect on rice flat sedge (E) [19] | Herbicidal effect by soil treatment, L: windgrass [20] | also measured |
| --- | --- | --- | --- | --- | --- | --- | --- | --- | --- | --- | --- | --- | --- | --- | --- | --- | --- | --- | --- | --- | --- |
| CCOc1ccccc1-c1sc2c(F)cccc2c1-c1c(O)c(C)nn(C)c1=O [4-007] | 4 (Herbicidal rate of 70% or more and less than 90%) | 4 (Herbicidal rate of 70% or more and less than 90%) | 0 (Herbicidal rate of 5% or less (almost no effect)) | 2 (Herbicidal rate of 20% or more and less than 40%) | 5 (Herbicidal rate of 90% or more (almost completely withered)) | 0 (Herbicidal rate of 5% or less (almost no effect)) | 5 (Herbicidal rate of 90% or more (almost completely withered)) | 0 (Herbicidal rate of 5% or less (almost no effect)) | 1 (Herbicidal rate of 5% or more and less than 20%) | 0 (Herbicidal rate of 5% or less (almost no effect)) | 4 (Herbicidal rate of 70% or more and less than 90%) | 5 (Herbicidal rate of 90% or more (almost completely withered)) | 5 (Herbicidal rate of 90% or more (almost completely withered)) | 3 (Herbicidal rate of 40% or more and less than 70%) | 0 (Herbicidal rate of 5% or less (almost no effect)) | 0 (Herbicidal rate of 5% or less (almost no effect)) | 3 (Herbicidal rate of 40% or more and less than 70%) | 3 (Herbicidal rate of 40% or more and less than 70%) | 5 (Herbicidal rate of 90% or more (almost completely withered)) | 0 (Herbicidal rate of 5% or less (almost no effect)) | Herbicidal effect by soil treatment, I: wild oat [21]: 0 (Herbicidal rate of 5% or less (almost no effect)); Herbicidal effect by soil treatment, K: Italian ryegrass [22]: 0 (Herbicidal rate of 5% or less (almost no effect)); Herbicidal effect by soil treatment, P: chickweed [23]: 3 (Herbicidal rate of 40% or more and less than 70%); Herbicidal effect by soil treatment, M: velvetleaf [24]: 0 (Herbicidal rate of 5% or less (almost no effect)); Herbicidal effect by soil treatment, F: southern crabgrass [25]: 0 (Herbicidal rate of 5% or less (almost no effect)); Herbicidal effect by soil treatment, R: persian speedwell [26]: 3 (Herbicidal rate of 40% or more and less than 70%); herbicidal effect on I: wild oat (evaluation grade 0-5) [27]: 2 (Herbicidal rate of 20% or more and less than 40%); herbicidal effect on Chinese sprangletop (D) [28]: 3 (Herbicidal rate of 40% or more and less than 70%); Herbicidal effect by soil treatment, J: blackgrass [29]: 3 (Herbicidal rate of 40% or more and less than 70%); herbicidal effect on N: redroot pigweed (evaluation grade 0-5) [30]: 3 (Herbicidal rate of 40% or more and less than 70%) |
| CCCOc1ccc(-c2sc3c(F)cccc3c2-c2c(O)c(C)nn(C)c2=O)cc1 [4-009] | 4 (Herbicidal rate of 70% or more and less than 90%) | 4 (Herbicidal rate of 70% or more and less than 90%) | 1 (Herbicidal rate of 5% or more and less than 20%) | 4 (Herbicidal rate of 70% or more and less than 90%) | 2 (Herbicidal rate of 20% or more and less than 40%) | 0 (Herbicidal rate of 5% or less (almost no effect)) | 5 (Herbicidal rate of 90% or more (almost completely withered)) | 0 (Herbicidal rate of 5% or less (almost no effect)) | 4 (Herbicidal rate of 70% or more and less than 90%) | 0 (Herbicidal rate of 5% or less (almost no effect)) | 5 (Herbicidal rate of 90% or more (almost completely withered)) | 5 (Herbicidal rate of 90% or more (almost completely withered)) | 5 (Herbicidal rate of 90% or more (almost completely withered)) | 3 (Herbicidal rate of 40% or more and less than 70%) | 5 (Herbicidal rate of 90% or more (almost completely withered)) | 3 (Herbicidal rate of 40% or more and less than 70%) | 3 (Herbicidal rate of 40% or more and less than 70%) | 2 (Herbicidal rate of 20% or more and less than 40%) | 5 (Herbicidal rate of 90% or more (almost completely withered)) | 0 (Herbicidal rate of 5% or less (almost no effect)) | Herbicidal effect by soil treatment, I: wild oat [21]: 0 (Herbicidal rate of 5% or less (almost no effect)); Herbicidal effect by soil treatment, K: Italian ryegrass [22]: 0 (Herbicidal rate of 5% or less (almost no effect)); Herbicidal effect by soil treatment, P: chickweed [23]: 4 (Herbicidal rate of 70% or more and less than 90%); Herbicidal effect by soil treatment, M: velvetleaf [24]: 0 (Herbicidal rate of 5% or less (almost no effect)); Herbicidal effect by soil treatment, F: southern crabgrass [25]: 0 (Herbicidal rate of 5% or less (almost no effect)); Herbicidal effect by soil treatment, R: persian speedwell [26]: 4 (Herbicidal rate of 70% or more and less than 90%); herbicidal effect on I: wild oat (evaluation grade 0-5) [27]: 0 (Herbicidal rate of 5% or less (almost no effect)); herbicidal effect on Chinese sprangletop (D) [28]: 3 (Herbicidal rate of 40% or more and less than 70%); Herbicidal effect by soil treatment, J: blackgrass [29]: 0 (Herbicidal rate of 5% or less (almost no effect)); herbicidal effect on N: redroot pigweed (evaluation grade 0-5) [30]: 5 (Herbicidal rate of 90% or more (almost completely withered)) |
